According to PMC11747885, “Potent inhibitors of the human RNA ligase Rlig1 highlights its role in RNA integrity maintenance under oxidative cellular stress” (Chemical Science, 2025):

Molecular target: T1, Rlig1-AMP (Homo sapiens, UniProt Q8N999)
T1 construct: made in house; host or cells: E. coli BL21 (DE3), pET15b-Rlig1
Assay: FRET-based high-throughput screening of inhibitors for Rlig1-AMP
Assay type: biochemical
Conditions: for Raw data [w Enyzm]: with enzyme; for Raw data [w/o Enzym]: without enzyme

[1] = sheet HTS hits, MedChemExpress library
[2] = sheet HTS hits, difference of raw data w/o and w enzyme
[3] = HTS hits, difference of raw data w/o and w enzyme
[4] = HTS hits, normalised value of 1-D Distance
[5] = HTS hits, MedChemExpress library
[6] = HTS hits, difference of raw data without and with enzyme
[7] = HTS hits, normalized value (npi)

T1 sequence (Q8N999 whole entry): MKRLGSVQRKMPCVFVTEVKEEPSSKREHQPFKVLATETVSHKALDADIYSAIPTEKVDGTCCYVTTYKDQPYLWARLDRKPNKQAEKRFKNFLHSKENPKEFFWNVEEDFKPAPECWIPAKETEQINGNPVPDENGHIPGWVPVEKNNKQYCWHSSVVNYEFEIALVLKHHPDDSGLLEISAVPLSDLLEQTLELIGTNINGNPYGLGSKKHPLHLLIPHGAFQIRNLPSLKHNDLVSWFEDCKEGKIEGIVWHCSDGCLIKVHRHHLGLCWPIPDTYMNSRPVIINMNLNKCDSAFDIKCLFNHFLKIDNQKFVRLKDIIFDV

SMILES	1-D Distance.npi [1]	1-D Distance [2]	Raw data [w Enyzm] (sheet HTS hits)	Raw data [w/o Enzym] (sheet HTS hits)	1-D Distance [3]	Raw data [w Enyzm] (HTS hits)	Raw data [w/o Enzym] (HTS hits)	also measured
COc1cccc2c1C(=N)c1c(O)c3c(c(O)c1C2=O)C[C@@](O)(C(C)=O)C[C@@H]3O[C@H]1C[C@H](N)[C@H](O)[C@H](C)O1.Cl [5-Iminodaunorubicin (hydrochloride)]	90.1534	802	2925	3727				
COc1cccc2c1C(=N)c1c(O)c3c(c(O)c1C2=O)C[C@@](O)(C(C)=O)C[C@@H]3O[C@H]1C[C@H](N)[C@H](O)[C@H](C)O1 [5-Iminodaunorubicin]					1374	2360	3734	1-D Distance.npi [4]: 80.0753
CN(C)CCSSCCNC(=O)C1CCN(C(=O)CSc2ccc(Cl)cc2)CC1.O=C(O)C(F)(F)F [6H05 (TFA)]					1774	8996	10770	1-D Distance.npi [4]: 75.4127
CC(C)=CC[C@H](O)C1=CC(=O)c2c(O)ccc(O)c2C1=O [(-)-Alkannin]						3885		1-D Distance.npi [5]: 70.9637; 1-D Distance [6]: 1812
Cc1ncsc1-c1ccc(CNC(=O)[C@@H]2C[C@@H](O)CN2C(=O)[C@@H](NC(=O)CCN)C(C)(C)C)cc1.Cl.Cl [(S,R,S)-AHPC-C2-NH2 (dihydrochloride)]	76.891	1672	9239	10911				
CCCCCCCCCCCCCCCC(=O)NCCCC[C@@H](N)C(=O)NCCCNCCCCNCCCN.Cl.Cl.Cl.Cl [AMXT-1501 tetrahydrochloride]					45	4942	4897	1-D Distance.npi [7]: 103.958
O=C(O)c1ccc(-c2ccc(N(c3ccc(-c4ccc(C(=O)O)cc4)cc3)c3ccc(-c4ccc(C(=O)O)cc4)cc3)cc2)cc1 [Antibacterial agent 18]						12110	13337	1-D Distance.npi [5]: 80.2581; 1-D Distance [6]: 1227
CN1CCC=C(C(=O)O)C1 [Arecaidine]					1949	8786	10735	1-D Distance.npi [4]: 71.9903
C=C1C(=O)O[C@@H]2[C@H]3C(C)=CC[C@@]34O[C@@]4(C)CC[C@@H]12 [Arglabin]					1673	8885	10558	
CC(=O)Nc1cc(Oc2ccc3c(C(=O)Nc4ccc(CN5CCN(C)CC5)c(C(F)(F)F)c4)cccc3c2)ncn1 [BGG463]					797	8276	9073	1-D Distance.npi [7]: 93.5609
C[n+]1ccc(/C=C/c2ccc3c(c2)c2cc(/C=C/c4cc[n+](C)cc4)ccc2n3CCOCCOCCOCC[N+]2(C)CCCCC2)cc1.[I-].[I-].[I-] [BMVC-8C3O]					496	3841	4337	1-D Distance.npi [7]: 99.5333
O=c1[nH]c(=O)c2ccccc2[nH]1 [Benzoyleneurea]						9137	11028	1-D Distance.npi [5]: 70.2932; 1-D Distance [6]: 1891
O=C(O)CCCN1CCC(O[C@@H](c2ccc(Cl)cc2)c2ccccn2)CC1.O=S(=O)(O)c1ccccc1 [Bepotastine (besilate)]	70.3956	1900	8762	10662				
C#CCOCCOCCOCCOCC#C [Bis-propargyl-PEG3]	78.8376	1567	9208	10775				
CN(C)c1ccc(Nc2c3ccc(NC(=O)CCN4CCCC4)cc3nc3cc(NC(=O)CCN4CCCC4)ccc23)cc1.Cl.Cl.Cl [Braco-19 (trihydrochloride)]					99	2490	2391	1-D Distance.npi [4]: 102.921
CC(=O)Nc1ccc(S(=O)(=O)[O-])c2cc(S(=O)(=O)[O-])c(N=Nc3ccc(N=Nc4ccc(S(=O)(=O)[O-])cc4)c4ccc(S(=O)(=O)[O-])cc34)c(O)c12.[Na+].[Na+].[Na+].[Na+] [Brilliant Black BN]						1620	1348	1-D Distance.npi [5]: 98.2105; 1-D Distance [6]: 272
CC(C)(C)OC(=O)CCOCCBr [Bromo-PEG1-C2-Boc]	72.9978	1882	9154	11036				
CC(/C=C/C=C(\C)C(=O)O[C@@H]1O[C@H](CO[C@@H]2O[C@H](CO)[C@@H](O)[C@H](O)[C@H]2O)[C@@H](O)[C@H](O)[C@H]1O)=C\C=C\C=C(C)\C=C\C=C(/C)C(=O)O[C@@H]1O[C@H](CO[C@@H]2O[C@H](CO)[C@@H](O)[C@H](O)[C@H]2O)[C@@H](O)[C@H](O)[C@H]1O [Crocin]						2370	3763	1-D Distance [6]: 1393
COc1cccc2c1C(=O)c1c(O)c3c(c(O)c1C2=O)C[C@@](O)(C(C)=O)C[C@@H]3O[C@H]1C[C@H](NC(=O)OCc2ccc(O[C@@H]3O[C@H](CO)[C@H](O)[C@H](O)[C@H]3O)c([N+](=O)[O-])c2)[C@H](O)[C@H](C)O1 [Daun02]					1434	2111	3545	1-D Distance.npi [7]: 83.3585
Cc1cccc2c3c(ccc12)C(=O)C1=C(OCC1C)C3=O (centres unmarked) [Dihydroisotanshinone I]	72.3395	1938	11164	13102				
CC1=NN(c2ccc(C)c(C)c2)C(=O)/C1=N\Nc1cccc(-c2cccc(C(=O)O)c2)c1O.NCCO.NCCO [Eltrombopag (Olamine)]	92.4928	680	3683	4363				
COc1cccc2c1C(=O)c1c(O)c3c(c(O)c1C2=O)C[C@@](O)(C(=O)CO)C[C@@H]3O[C@H]1C[C@H](N)[C@@H](O)[C@H](C)O1.Cl [Epirubicin (hydrochloride)]						1246		1-D Distance.npi [5]: 99.0682; 1-D Distance [6]: 316
CC(=O)O[C@H]1C[C@@]2(C)[C@@H](C[C@@H](O)[C@H]3[C@@]4(C)CC[C@@H](O)[C@@H](C)[C@@H]4CC[C@@]32C)/C1=C(\CCC=C(C)C)C(=O)[O-].[Na+] [Fusidic acid (sodium salt)]	75.4657	1636	9299	10935				
C=CC1=C(C)c2cc3[n-]c(cc4nc(cc5[n-]c(cc1n2)c(C)c5C=C)C(C)=C4CCC(=O)O)c(CCC(=O)O)c3C.[Cl-].[Fe+3] [Hemin]	76.0753	1716	4406	6122				
C/C1=C2/[N-]C([C@H](CC(N)=O)[C@@]2(C)CCC(=O)NC[C@@H](C)OP(=O)([O-])O[C@H]2[C@@H](O)[C@@H](n3cnc4cc(C)c(C)cc43)O[C@@H]2CO)[C@]2(C)N=C(/C(C)=C3N=C(/C=C4N=C1[C@@H](CCC(N)=O)C\4(C)C)[C@@H](CCC(N)=O)[C@]\3(C)CC(N)=O)[C@@H](CCC(N)=O)[C@]2(C)CC(N)=O.CC(=O)[O-].[Co+3] [Hydroxocobalamin (acetate)]						4827	6279	1-D Distance.npi [5]: 78.9236; 1-D Distance [6]: 1452
C/C1=C2N=C(/C=C3N=C(/C(C)=C4\[N-]C(C(CC(N)=O)C4(C)CCC(=O)NCC(C)OP(=O)([O-])OC4C(CO)OC(n5cnc6cc(C)c(C)cc65)C4O)C4(C)N=C1C(CCC(N)=O)C4(C)CC(N)=O)C(CCC(N)=O)C\3(C)C)C(CCC(N)=O)C/2(C)CC(N)=O.Cl.[Co+3].[OH-] (centres unmarked) [Hydroxocobalamin (monohydrochloride)]	101.9	179	5221	5042				
COc1c2c3c4c(c(OC)c(=O)c5c(O)cc(OC)c(c6c(OC)cc(O)c(c1=O)c63)c54)[C@@H](C(C)=O)[C@@](C)(O)C2 [Hypocrellin A]					1179	1866	3045	
CC(=O)[C@]1(O)Cc2c(O)c3c(c(O)c2[C@@H](O[C@H]2C[C@H](N)[C@H](O)[C@H](C)O2)C1)C(=O)c1ccccc1C3=O.Cl [Idarubicin (hydrochloride)]						5823	7545	1-D Distance.npi [5]: 74.8199; 1-D Distance [6]: 1722
